In patent publication US20240238268A1, “TREATMENTS AND METHODS FOR TREATING ALZHEIMER'S DISEASE” (Board of Supervisors of Louisiana State University and …, priority 2021, published 2024):

Assays:
[1] = molecular target: T1, PRMT4 (Mus musculus, UniProt Q9WVG6); assay: PRMT4 protein level in brain, capillary-based immunoassay; format: in vivo; conditions: IP
T1 construct: Protein was extracted from dissected tissue in an extraction buffer; from tissue; host or cells: mouse brain (cortex, hippocampus, whole brain lysate) of 3xTg-AD and C57BL/6J mice
T1 sequence (Q9WVG6 1-608): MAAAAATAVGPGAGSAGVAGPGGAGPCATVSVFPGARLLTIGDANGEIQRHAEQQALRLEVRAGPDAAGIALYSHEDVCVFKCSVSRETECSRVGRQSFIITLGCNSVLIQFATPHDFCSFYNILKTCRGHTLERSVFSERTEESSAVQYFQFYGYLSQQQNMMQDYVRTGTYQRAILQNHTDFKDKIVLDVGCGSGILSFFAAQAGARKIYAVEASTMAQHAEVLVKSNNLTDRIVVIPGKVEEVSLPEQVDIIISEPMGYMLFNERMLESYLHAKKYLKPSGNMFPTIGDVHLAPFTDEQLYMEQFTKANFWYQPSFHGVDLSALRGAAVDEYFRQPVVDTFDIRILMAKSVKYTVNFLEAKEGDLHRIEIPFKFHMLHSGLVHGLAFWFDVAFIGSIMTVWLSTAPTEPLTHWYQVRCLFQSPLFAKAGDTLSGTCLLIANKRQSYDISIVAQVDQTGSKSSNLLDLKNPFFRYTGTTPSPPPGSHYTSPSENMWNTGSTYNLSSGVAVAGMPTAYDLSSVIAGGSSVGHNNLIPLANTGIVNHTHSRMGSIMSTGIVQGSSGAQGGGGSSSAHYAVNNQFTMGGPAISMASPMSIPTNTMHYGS
Method: Dosage, delivery of TP-064: PRMT4 specific inhibitor (TP-064, 30 mg/kg/day for 7 days, IP) was administered once daily for 7 or 21 days to young (4-6 months) and aged (9-12 months) C57BL/6J and 3xTg-AD, male and female mice. The inventors have found a dose response curve that evidences that 30 mg/kg (I.P.) of TP-064 decreases PRMT4 (FIG. 10A). TP-064 was dissolved in 100% DMSO, diluted in 0.9% saline (total injection volume=100 μL, ˜1.5% DMSO in mouse), greater than 5% DMSO can affect the brain.
Treatment regimen: Aged (9-12 month) females from both C57BL6/J as well as 3xTg-AD strains were randomly selected and placed in experimental groups. Treatment consisted of specific PRMT4 inhibitor TP-064 (Cat. No. 6008, Tocris, Minneapolis, MN) (Zhang, de Boer, van der Wel, Van Eck, & Hoekstra, 2021); (Zhong et al., 2018). The pharmacological mechanism of TP-064 has not been well-elucidated though it is thought to act as an allosteric inhibitor of the PRMT4 active site (Nakayama et al., 2018). Based on the pharmacokinetic data provided by the Structural Genomics Consortium (https://www.thesgc.org/), a dose of 30 mg/kg was selected. […] Final dose was calculated based on animal weight.
Capillary-phoresis immunoassay via ProteinSimple®: Quantification of all protein targets was achieved using Simple Western analysis in a Jess™ apparatus per the manufacturer's protocol (ProteinSimple, Bio-techne, Minneapolis, MN). […] Following homogenization and centrifugation (10,000×g, 5 min, 4° C.), protein concentration was determined in tissue protein supernatant samples using DC Protein Assay (Cat. No. 5000112, Bio-Rad Laboratories, Hercules, California) according to manufacturer instructions. […] Antibody diluent (ProteinSimple, Bio-techne, Minneapolis, MN) was used for all antibody dilutions as follows: PRMT4 (1:50, RRID: AB_2068436), PRMT6 (1:100, Cell Signaling Technology cat. 14641), eNOS (1:200, RRID: AB_10850618), nNOS (1:100, RRID: AB_2152488), iNOS (1:100, RRID: AB_10000625), DDAH2 (1:50, RRID: AB_2640442) Antibodies were detected using HRP-conjugated secondary anti-rabbit, and -mouse. […]

[2] = tested on: GFAP; assay: GFAP protein level in brain, capillary-based immunoassay; format: in vivo, mouse; conditions: aged 3xTg-AD female mice; TP-064 30 mg/kg, 7 days, IP or PRMT4-AAV
Method: Leukocytes velocity measurements were performed by linescans (512 lines/sec). *p<0.05 compared to aged 3xTg-AD male or C57 female evaluated by unpaired t-test. FIGS. 18A and 18B are capillary-based immunoassay and associated graphs showing PRMT4 inhibitor (TP-064) or AAV knockdown of PRMT4 reduced GFAP levels in aged 3xTg-AD female mice. Glial fibrillary acidic protein (GFAP, 55 kDa) was increased in aged 3xTg-AD female mice v. C57, which indicates neuroinflammation, but reversed with TP-064 (30 mg/kg, 7 days, IP) or PRMT4-AAV treatment in cortex, shown in FIG. 18A, and hippocampus, shown in FIG. 18B. Protein level was measured by capillary-based immunoassay and normalized to total protein. *p<0.05 as compared to C57, #p<0.05 v. 3xTg-AD evaluated by one-way ANOVA with Tukey's post-hoc analyses.
Capillary-phoresis immunoassay via ProteinSimple®: Quantification of all protein targets was achieved using Simple Western analysis in a Jess™ apparatus per the manufacturer's protocol (ProteinSimple, Bio-techne, Minneapolis, MN). […] Following homogenization and centrifugation (10,000×g, 5 min, 4° C.), protein concentration was determined in tissue protein supernatant samples using DC Protein Assay (Cat. No. 5000112, Bio-Rad Laboratories, Hercules, California) according to manufacturer instructions. […]

[3] = tested on: ICAM-1; assay: ICAM-1 level, protein chip assay; format: in vivo, mouse; conditions: aged 3xTg-AD female mice; cortex and hippocampus; 30 mg/kg, 7 days, IP
Method: FIGS. 19A-19F are six graphs showing PRMT4 inhibitor (TP-064) reduced ICAM-1, VCAM-1 and enhanced E-Cadherin protein levels in aged female 3xTg-AD mice. In FIGS. 19A-19D, aged 3xTg-AD female mice v. […] Adhesion molecules were assessed via protein chip assay in the cortex and hippocampus. * p<0.05 evaluated by one-way ANOVA with Tukey's post-hoc analyses.

[4] = aged 3xTg-AD female mice, 30 mg/kg for 7 days, normalized to total protein

cortical PRMT4 protein level [1, 4]: reduced
hippocampal PRMT4 protein level [1, 4]: reduced
Compound: CNCCN1CCC(c2cc(CN(C)C(=O)c3cccc(Oc4ccccc4)c3)ccn2)CC1 [TP-064, N-Methyl-N-((2-(1-(2-(methylamino)ethyl)piperidin-4-yl)pyridin-4-yl)methyl)-3-phenoxybenzamide]
PRMT4 expression in whole brain lysate ([1]; 3xTg-AD mice, 7.5, 15 and 30 mg/kg, 7 days, relative to untreated 3xTg-AD): reduced PRMT4 expression in whole brain lysate in a dose-dependent manner
GFAP level in cortex [2]: reduced
GFAP level in hippocampus [2]: reduced
ICAM-1 level [3]: decreased
